Laboratory results reported in PubChem BioAssay AID248 (DTP/NCI, 2004).
Toxic doses and inconclusive results are not listed. No stated cut-off is given here; in the data, active means T/C of 150% or more; inactive means T/C below 125%.

Tested on: L1210 leukemia ip in BDF1 mice, survival T/C
Test: NCI In Vivo Anticancer Drug Screen. Data for tumor model L1210 Leukemia (intraperitoneal) in B6D2F1 (BDF1) mice
Conditions: endpoint: mean survival time, higher = longer survival
Outline: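 Transplantable tumor model; survival measured in treated vs vehicle control mice. Value = treated/control.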

[1] = dose: 100.0 mg/kg/injection, schedule: Q01DX001 (ip), vehicle: saline
[2] = dose: 100.0 mg/kg/injection, schedule: Q04DX003 (ip), vehicle: saline
[3] = dose: 200.0 mg/kg/injection, schedule: Q01DX001 (ip), vehicle: saline
[4] = dose: 200.0 mg/kg/injection, schedule: Q04DX003 (ip), vehicle: saline
[5] = dose: 400.0 mg/kg/injection, schedule: Q01DX001 (ip), vehicle: saline
[6] = dose: 400.0 mg/kg/injection, schedule: Q04DX003 (ip), vehicle: saline
[7] = dose: 100.0 mg/kg/injection, schedule: Q01DX009 (ip), vehicle: Klucel (hydroxypropylcellulose) (HPC)
[8] = dose: 100.0 mg/kg/injection, schedule: Q01DX001 (ip), vehicle: other
[9] = dose: 200.0 mg/kg/injection, schedule: Q01DX001 (ip), vehicle: other
[10] = dose: 400.0 mg/kg/injection, schedule: Q01DX001 (ip), vehicle: other
[11] = dose: 200.0 mg/kg/injection, schedule: Q01DX009 (ip), vehicle: Klucel (hydroxypropylcellulose) (HPC)
[12] = dose: 400.0 mg/kg/injection, schedule: Q01DX009 (ip), vehicle: Klucel (hydroxypropylcellulose) (HPC)
[13] = dose: 50.0 mg/kg/injection, schedule: Q01DX001 (ip), vehicle: saline
[14] = dose: 100.0 mg/kg/injection, schedule: Q01DX009 (ip), vehicle: saline
[15] = dose: 200.0 mg/kg/injection, schedule: Q01DX009 (ip), vehicle: saline

Measured: T/C

Nc1nc2c(c(-c3ccc(Cl)cc3)n1)CN(CCC(=O)O)C2=O
inactive: [1] 100 % of control | [2] 98 % of control | [3] 105 % of control | [4] 98 % of control | [5] 102 % of control | [6] 98 % of control

CC(C)=CCN(CC=C(C)C)CCC(C#N)(CCN(CC=C(C)C)CC=C(C)C)c1cccc2ccccc12
inactive: [7] 86 % of control

O=C1CCC2CCC(CC2)O1
inactive: dose: 5.0 mg/kg/injection, schedule: Q01DX001 (ip), vehicle: saline 119 % of control | dose: 10.0 mg/kg/injection, schedule: Q01DX001 (ip), vehicle: saline 92 % of control | dose: 20.0 mg/kg/injection, schedule: Q01DX001 (ip), vehicle: saline 97 % of control

CC[C@@]1(O)C[C@H](OC2CC(N(C)C)C(OC3CC(O)C(OC4CCC(=O)C(C)O4)C(C)O3)C(C)O2)c2c(cc3c(c2O)C(=O)c2c(O)ccc(O)c2C3=O)[C@H]1C(=O)OC (stereo partly specified)
inactive: dose: 0.5 mg/kg/injection, schedule: Q01DX003 (ip), vehicle: saline 111 % of control | dose: 0.59 mg/kg/injection, schedule: Q01DX001 (ip), vehicle: saline 107 % of control | dose: 0.59 mg/kg/injection, schedule: Q01DX009 (ip), vehicle: saline 111 % of control | dose: 0.59 mg/kg/injection, schedule: Q04DX003 (ip), vehicle: saline 109 % of control | dose: 0.65 mg/kg/injection, schedule: Q01DX009 (ip), vehicle: water 122 % of control | dose: 0.75 mg/kg/injection, schedule: Q01DX009 (ip), vehicle: saline 121 % of control | dose: 0.89 mg/kg/injection, schedule: Q01DX001 (ip), vehicle: saline 107 % of control | dose: 0.89 mg/kg/injection, schedule: Q01DX009 (ip), vehicle: saline 113 % of control | dose: 0.89 mg/kg/injection, schedule: Q04DX003 (ip), vehicle: saline 105 % of control | dose: 1.0 mg/kg/injection, schedule: Q01DX003 (ip), vehicle: saline 113 % of control | dose: 1.0 mg/kg/injection, schedule: Q01DX009 (ip), vehicle: saline 119 % of control | dose: 1.04 mg/kg/injection, schedule: Q04DX003 (ip), vehicle: water 112 % of control | dose: 1.33 mg/kg/injection, schedule: Q01DX001 (ip), vehicle: saline 102 % of control | dose: 1.33 mg/kg/injection, schedule: Q01DX009 (ip), vehicle: saline 120 % of control | dose: 1.33 mg/kg/injection, schedule: Q04DX003 (ip), vehicle: saline 111 % of control | dose: 1.73 mg/kg/injection, schedule: Q04DX003 (ip), vehicle: water 112 % of control | dose: 2.0 mg/kg/injection, schedule: Q01DX001 (ip), vehicle: saline 109 % of control | dose: 2.0 mg/kg/injection, schedule: Q04DX003 (ip), vehicle: saline 107 % of control | dose: 2.59 mg/kg/injection, schedule: Q01DX001 (ip), vehicle: water 112 % of control | dose: 3.0 mg/kg/injection, schedule: Q01DX001 (ip), vehicle: saline 117 % of control | dose: 3.0 mg/kg/injection, schedule: Q01DX009 (ip), vehicle: saline 103 % of control | dose: 3.0 mg/kg/injection, schedule: Q01DX009 (ip), vehicle: water 96 % of control | dose: 12.0 mg/kg/injection, schedule: Q01DX001 (ip), vehicle: water 113 % of control | dose: 20.0 mg/kg/injection, schedule: Q01DX001 (ip), vehicle: water 98 % of control

OC1CSCCc2ccccc21 (stereo unspecified)
inactive: [8] 100 % of control | [9] 98 % of control | [10] 114 % of control

CC(=O)CCNc1ccc(O)c2c1C(=O)c1ccccc1C2=O
inactive: dose: 100.0 mg/kg/injection, schedule: Q01DX001 (ip), vehicle: carboxymethylcellulose (CMC) 96 % of control | dose: 200.0 mg/kg/injection, schedule: Q01DX001 (ip), vehicle: carboxymethylcellulose (CMC) 89 % of control | dose: 400.0 mg/kg/injection, schedule: Q01DX001 (ip), vehicle: carboxymethylcellulose (CMC) 94 % of control

NC(=O)c1cc(Cl)ccc1N
inactive: [8] 97 % of control | [9] 97 % of control | [10] 105 % of control

OCC1OCOC2C(CO)OCOC12 (stereo unspecified)
inactive: dose: 25.6 mg/kg/injection, schedule: Q04DX002 (ip), vehicle: saline with Tween-80 104 % of control | dose: 64.0 mg/kg/injection, schedule: Q04DX002 (ip), vehicle: saline with Tween-80 101 % of control | dose: 160.0 mg/kg/injection, schedule: Q04DX002 (ip), vehicle: saline with Tween-80 101 % of control | dose: 400.0 mg/kg/injection, schedule: Q04DX002 (ip), vehicle: saline with Tween-80 96 % of control

CCCCCCCCCCCCCCCC(=O)Nc1ccc(C(=O)C[n+]2ccc3c(NC(=O)CCC(=O)OC)cccc3c2)cc1
inactive: dose: 75.0 mg/kg/injection, schedule: Q01DX001 (ip), vehicle: other 86 % of control | dose: 150.0 mg/kg/injection, schedule: Q01DX001 (ip), vehicle: other 95 % of control

CC(C)(C)[Se]C(=N)N
inactive: dose: 18.8 mg/kg/injection, schedule: Q01DX001 (ip), vehicle: saline with Tween-80 101 % of control | dose: 37.5 mg/kg/injection, schedule: Q01DX001 (ip), vehicle: saline with Tween-80 100 % of control | dose: 50.0 mg/kg/injection, schedule: Q01DX001 (ip), vehicle: saline with Tween-80 107 % of control | dose: 75.0 mg/kg/injection, schedule: Q01DX001 (ip), vehicle: saline with Tween-80 95 % of control

Cc1cccc(C)c1OC(=O)NC1CCCCC1
inactive: dose: 100.0 mg/kg/injection, schedule: Q04DX002 (ip), vehicle: Klucel (hydroxypropylcellulose) (HPC) 107 % of control | dose: 200.0 mg/kg/injection, schedule: Q04DX002 (ip), vehicle: Klucel (hydroxypropylcellulose) (HPC) 89 % of control | dose: 400.0 mg/kg/injection, schedule: Q04DX002 (ip), vehicle: Klucel (hydroxypropylcellulose) (HPC) 96 % of control

CCOC(=O)C1=C(O)c2ccccc2C1c1ccccc1 (stereo unspecified)
inactive: [7] 93 % of control | [11] 91 % of control | [12] 93 % of control

Cc1ccc(NC(=S)/C(=C(/[O-])c2ccc([N+](=O)[O-])cc2)[n+]2ccccc2)c(C)c1
inactive: [7] 101 % of control | [11] 97 % of control | [12] 95 % of control

C/C(=N/N(CCCCN(/N=C(/C)c1ccccc1)c1ccccc1)c1ccccc1)c1ccccc1
inactive: [13] 97 % of control | [1] 95 % of control | [3] 92 % of control | [5] 92 % of control

Cc1ccc(S(=O)(=O)NC(=S)Nc2ccccc2)cc1
inactive: [13] 98 % of control | dose: 50.0 mg/kg/injection, schedule: Q01DX009 (ip), vehicle: saline 102 % of control | [1] 101 % of control | [14] 95 % of control | [3] 101 % of control | [15] 109 % of control

O=C(NCCCl)Nc1ccncc1
inactive: dose: 1.25 mg/kg/injection, schedule: Q01DX009 (ip), vehicle: Klucel (hydroxypropylcellulose) (HPC) 97 % of control | dose: 2.5 mg/kg/injection, schedule: Q01DX009 (ip), vehicle: Klucel (hydroxypropylcellulose) (HPC) 88 % of control | dose: 2.5 mg/kg/injection, schedule: Q04DX003 (ip), vehicle: Klucel (hydroxypropylcellulose) (HPC) 100 % of control | dose: 5.0 mg/kg/injection, schedule: Q04DX003 (ip), vehicle: Klucel (hydroxypropylcellulose) (HPC) 103 % of control

CCOCCc1ccccn1
inactive: [14] 113 % of control | [2] 103 % of control | [15] 100 % of control | [4] 103 % of control | dose: 400.0 mg/kg/injection, schedule: Q01DX009 (ip), vehicle: saline 96 % of control | [6] 101 % of control

CCCCC(=O)N/N=C/c1ccc(NC(C)=O)cc1
inactive: [1] 102 % of control | [3] 102 % of control | [5] 102 % of control

O=C1c2ccccc2C(=O)N1C/C=C/Cl
inactive: dose: 100.0 mg/kg/injection, schedule: Q04DX003 (ip), vehicle: saline with Tween-80 104 % of control | dose: 200.0 mg/kg/injection, schedule: Q04DX003 (ip), vehicle: saline with Tween-80 108 % of control | dose: 400.0 mg/kg/injection, schedule: Q04DX003 (ip), vehicle: saline with Tween-80 101 % of control

O=C(CCCC(=O)N/N=C/c1ccccc1O)N/N=C\c1ccccc1O
inactive: [13] 87 % of control | [1] 90 % of control | [5] 90 % of control
